Measured values published in US20110150817A1, “FRESHENING COMPOSITIONS COMPRISING MALODOR BINDING POLYMERS AND MALODOR CONTROL COMPONENTS” (priority 2009, published 2011).
Like-named read-outs stand apart in the source and are kept apart here.

Columns and labels:
[1] = Effect of volatile aldehydes on sulfur-based malodor (headspace GC/MS); conditions: 30 minutes at room temperature, 1 μL aldehyde in 10 mL headspace vial
Procedure: A 1 μL sample of each volatile aldehyde listed in Table 6 and each Accord (A, B, and C) listed in Tables 1 to 3 is pipeted into individual 10 mL silanized headspace vials. […] Repeat 4 times for each sample (2 for butylamine analysis and 2 for butanethiol analysis). […]

[2] = Effect of volatile aldehydes on amine-based malodor (headspace GC/MS); conditions: 1 μL aldehyde in 10 mL headspace vial
Procedure: A 1 μL sample of each volatile aldehyde listed in Table 6 and each Accord (A, B, and C) listed in Tables 1 to 3 is pipeted into individual 10 mL silanized headspace vials. […] Repeat 4 times for each sample (2 for butylamine analysis and 2 for butanethiol analysis).
For amine analysis, the samples are injected immediately into the system after the malodor is introduced.

[3] = Vapor pressure at 25° C.; assay type: physicochemical
Procedure: Suitable acid catalysts have a VP, as reported by Scifinder, in the range of about 0.001 torr to about 38 torr, measured at 25° C., alternatively about 0.001 torr to about 14 torr, alternatively from about 0.001 to about 1, alternatively from about 0.001 to about 0.020, alternatively about 0.005 to about 0.020, alternatively about 0.010 to about 0.020.

[4] = acid catalysts, as reported by Scifinder; cited from earlier work

| Compound | At least 20% butanethiol reduction at 30 minutes? [1] | At least 20% butylamine reduction at 40 seconds? [2] | VP (torr) @25° C. ([3]; Table 2, materials of Accord B) | VP (torr) @25° C. ([3]; Table 3, materials of Accord C) | VP (torr) @25° C. [4] | VP (torr) @25° C. ([3]; Table 1, materials of Accord A) |
| --- | --- | --- | --- | --- | --- | --- |
| CCCCCCCCCCCC=O [Lauric aldehyde] | No | Yes |  |  |  |  |
| CCc1ccc(CC(C)(C)C=O)cc1 [Floralozone, para-ethyl-alpha,alpha-dimethyl Hydrocinnamaldehyde] | No | No | 0.005 torr | 0.005 torr |  |  |
| COc1cc(OC)c(OC)cc1C=O [2,4,5 Trimethoxy Benzaldehyde] | No | No |  |  |  |  |
| Cc1ccc(C=O)s1 [5-methyl-thiophene-carboxaldehyde] | Yes | No |  |  |  |  |
| COc1ccc(C=O)cc1 [p-anisaldehyde, p-methoxybenzene aldehyde] | No | Yes |  |  |  |  |
| Cc1ccc(C(=O)O)s1 [5-Methyl thiophene carboxylic acid] |  |  |  |  | 0.019 torr |  |
| CC(=O)O [Acetic Acid] |  |  |  |  | 13.9 torr |  |
| O=C(O)c1ccccc1 [Benzoic acid] |  |  |  |  | 0.014 torr |  |
| CC(C)(O)CCCC1=CCC(C=O)CC1 (centres unmarked) [Lyral, 4-(4-hydroxy-4-methylpentyl)-3-cyclohexene-1-carboxaldehyde] | No | Yes |  |  |  |  |
| CC(C=O)=Cc1ccco1 [2-methyl-3-(2-furyl)-propenal] | No | No |  |  |  |  |
| CC1=CC(C)C(C=O)CC1 (centres unmarked) [Ligustral, 2,4-dimethyl-3-cyclohexene-1-carboxaldehyde] | No | Yes |  |  |  |  |
| CC(C)CC=C(C=O)C(C)C [2-isopropyl-5-methyl-2-hexenal] | Yes | Yes |  |  |  |  |
| CC(C)(C)C(=O)O [Trimethyl Acetic Acid] |  |  |  |  | 0.907 torr |  |
| C=CC(C)CCC=C(C)CCC=O (centres unmarked) [Floral Super] | Yes | Yes | 0.030 torr | 0.030 torr |  | 0.030 torr |
| CC(C=O)Cc1ccc2c(c1)OCO2 (stereo not drawn) [Helional, alpha-methyl-3,4-(methylenedioxy)-hydrocinnamaldehyde] | No | Yes |  | 0.0005 torr |  |  |
| CC(C)=CCCC(C)CCOCC=O (centres unmarked) [Citronelyl Oxyacetaldehyde, Citronellyl oxyacetaldehyde] | No | No |  |  |  |  |
| O=CO [Formic Acid] |  |  |  |  | 36.5 torr |  |
| CC1(C)C2CC=C(CCC=O)C1C2 (centres unmarked) [Pino acetaldehyde] | Yes | Yes |  |  |  |  |
| 3,4-Trimethoxy-benzylaldehyde | No | No |  |  |  |  |
| O=Cc1ccccc1 [Benzylaldehyde] | No | Yes |  |  |  |  |
| CC(C)=CCCC(C)C=O (centres unmarked) [Melonal, 2,6-Dimethyl-5-Heptenal] | No | Yes | 0.670 torr | 0.670 torr |  |  |
| C=CCCCCCCCCC=O [Intreleven Aldehyde, undec-10-en-1-al] |  |  | 0.060 torr | 0.060 torr |  | 0.060 torr |
| Cc1cc(C)cc(C(=O)O)c1 [Mesitylenic acid] |  |  |  |  | 0.00211 torr |  |
| CC(C=O)Cc1ccc(C(C)(C)C)cc1 (stereo not drawn) [P.T. Bucinal, 4-tert-butyl-alpha-methyl-hydrocinnamaldehyde] | No | Yes |  |  |  |  |
| C/C=C(\C)C(=O)O [Tiglic acid] |  |  |  |  | 0.152 torr |  |
| CCCCCCCCCC(C)C=O (centres unmarked) [Methyl Nonyl Acetaldehyde, 2-methyl-1-undecanal] | No | No | 0.030 torr | 0.030 torr |  |  |

| Compound | At least 20% butanethiol reduction at 30 minutes? [1] | At least 20% butylamine reduction at 40 seconds? [2] | VP (torr) @25° C. ([3]; Table 2, materials of Accord B) | VP (torr) @25° C. ([3]; Table 3, materials of Accord C) | VP (torr) @25° C. [4] | VP (torr) @25° C. ([3]; Table 1, materials of Accord A) |
| --- | --- | --- | --- | --- | --- | --- |
| COc1ccccc1C=O [o-anisaldehyde] | Yes | Yes | 0.032 torr | 0.320 torr |  | 0.032 torr |
| CCCCC/C=C/CCC=O [Trans-4-decenal] | Yes | Yes |  |  |  |  |
| O=Cc1cccs1 [Thiophene Carboxaldehyde] | No | Yes |  |  |  |  |
| CCC(=O)OC1CC2CC1C1CC=CC21 (centres unmarked) [Frutene] |  |  |  | 0.020 torr |  |  |
| COc1cc(OC)c(C=O)c(OC)c1 [2,4,6-Trimethoxy-benzylaldehyde] | No | No |  |  |  |  |
| COc1cc(C=O)cc(OC)c1OC [3,4,5 Trimethoxy Benzaldehyde] | No | No |  |  |  |  |
| CC(CC=O)CCCC(C)(C)O (centres unmarked) [Hydroxycitronellal, 7-hydroxy-3,7-dimethyl octan-1-al] | No | No |  |  |  |  |
| CCCCCCCCCC=O [Decyl aldehyde] | No | Yes |  |  |  |  |
| COC1CC2CC1C1CC(C=O)CC21 (centres unmarked) [Scentenal, octahydro-5-methoxy-4,7-Methano-1H-indene-2-carboxaldehyde] |  |  | 0.010 torr | 0.010 torr |  | 0.010 torr |
| Cc1ccc(C=O)o1 [5-methyl furfural] | Yes | Yes |  |  |  |  |
| Oc1ccccc1 [Phenol] |  |  |  |  | 0.610 torr |  |
| CC(C)c1cccc(C(C)CC=O)c1 (centres unmarked) [Florhydral, 3-(3-Isopropyl-phenyl)-butyraldehyde] | Yes | Yes | 0.008 torr | 0.008 torr |  | 0.008 torr |
| CCOc1ccccc1C=O [2-ethoxy benzylaldehyde] | Yes | Yes |  |  |  |  |
| CC(C=O)Cc1ccc(C(C)C)cc1 (stereo not drawn) [Cymal, Alpha-methyl-p-isopropyl phenyl propyl aldehyde] | No | Yes | 0.007 torr | 0.007 torr |  | 0.007 torr |
| CCCCCC(C=O)=Cc1ccccc1 [Amyl cinnamic aldehyde, alpha-Amylcinnamic aldehyde] | No | No |  |  |  |  |
| CC(=O)OC1CC2CC1C1CC=CC21 (centres unmarked) [Flor Acetate] |  |  |  | 0.060 torr |  |  |
| O=C(O)CCC(=O)O [Succinic acid] |  |  |  |  | 0.0165 torr |  |
| CC(C)(C)c1ccc(C=O)cc1 [4-tertbutyl benzylaldehyde] | No | Yes |  |  |  |  |
| O=CC=Cc1ccccc1 [Cinnamic aldehyde, 3-phenyl-2-propenal] | Yes | Yes |  |  |  |  |
| C=CC(C)(O)CCC=C(C)C (centres unmarked) [Linalool] |  |  |  | 0.050 torr |  |  |
| CCCCCCCC(=O)O [Caprylic acid] |  |  |  |  | 0.0222 torr |  |
| CCCCCCCCCCC=O [Undecyl aldehyde] | No | Yes |  |  |  |  |
| CCCC/C=C/C=C/C=O [Trans Trans 2,4-Nonadienal] | No | Yes |  |  |  |  |
| CC(C)(C)c1ccc(CCC=O)cc1 [Bourgeonal, 4-t-butylbenzenepropionaldehyde] | Yes | No |  | 0.004 torr |  |  |
| CC(C)=CCCC(C)CCCC(C)C=O (centres unmarked) [Adoxal, 2,6,10-Trimethyl-9-undecenal] | No | Yes | 0.007 torr | 0.007 torr |  |  |
